Measurements: US20210254056A1, “IDENTIFICATION AND TARGETED MODULATION OF GENE SIGNALING NETWORKS” (CAMP4 THERAPEUTICS CORPORATION, priority 2017, published 2021)
Where a name gives a salt, the structure may show the parent alone.

System: hepatocytes
Assay: RNA-seq of hepatocytes treated with Phase III failure compounds
Settings: for Number (#) of genes having significantly changed expression: Phase III failure compounds, significance: FPKM≥0.5, log 2(fold-change)≥1, q-value≥0.05 (so in the source); for significant modulation of expression of any of the genes analyzed: p≤0.05
Experimental: RNA-seq was performed to determine the effects of the compounds on hepatocytes.
Significance was determined by the criteria of FPKM≥0.5, a log 2(fold-change)≥1, and a […].

## NC(=O)c1ccc(I)c([N+](=O)[O-])c1 [BSI-201]
  RNA-seq results, CYP2B6 expression: 0.07
  RNA-seq results, CYP2C19 expression: 0.30
  RNA-seq results, CYP2D6 expression: −0.15
  RNA-seq results, CYP3A4 expression: −0.46
  RNA-seq results, CYP7B1 expression: 0.03
  RNA-seq results, CYP39A1 expression: −0.20
  RNA-seq results: CYP2B6 expression: 0.48
  RNA-seq results: CYP2C19 expression: 0.24
  RNA-seq results: CYP2D6 expression: 0.11
  RNA-seq results: CYP3A4 expression: 3.12
  RNA-seq results: CYP7B1 expression: 0.05
  RNA-seq results: CYP39A1 expression: 0.43
RNA-seq, q≤0.05, hepatocytes, genes in the value or listed in the block
  significant modulation of expression of disease genes: significantly (q≤0.05) modulate expression of RMRP
Gene A1BG, hepatocytes
  RNA-seq results: A1BG expression: −0.21
Gene AGTR1, hepatocytes
  RNA-seq results: AGTR1 expression: −0.22
Gene AGXT, hepatocytes
  RNA-seq results: AGXT expression: −0.06
Gene AHI1, hepatocytes
  RNA-seq results: AHI1 expression: 0.33
Gene AMPD3, hepatocytes
  RNA-seq results: AMPD3 expression: 0.19
Gene AMT, hepatocytes
  RNA-seq results: AMT expression: −0.04
Gene ANGPTL3, hepatocytes
  RNA-seq results: ANGPTL3 expression: −0.14
Gene ANKS4B, hepatocytes
  RNA-seq results: ANKS4B expression: −0.24
Gene ANKS6, hepatocytes
  RNA-seq results: ANKS6 expression: 0.04
Gene ANPEP, hepatocytes
  RNA-seq results: ANPEP expression: −0.09
Gene AOC2, hepatocytes
  RNA-seq results: AOC2 expression: 0.36
Gene APOA2, hepatocytes
  RNA-seq results: APOA2 expression: −0.52
Gene APOA5, hepatocytes
  RNA-seq results: APOA5 expression: −0.17
Gene APOB, hepatocytes
  RNA-seq results: APOB expression: 0.03
Gene COG5, hepatocytes
  RNA-seq results: COG5 expression: −0.06
Gene COG6, hepatocytes
  RNA-seq results: COG6 expression: −0.01
Gene COL1A1, hepatocytes
  RNA-seq results: COL1A1 expression: −0.34
Gene COX6A1, hepatocytes
  RNA-seq results: COX6A1 expression: −0.13
Gene CP, hepatocytes
  RNA-seq results: CP expression: 0.11
Gene CPS1, hepatocytes
  RNA-seq results: CPS1 expression: 0.09
Gene CPT1A, hepatocytes
  RNA-seq results: CPT1A expression: −0.18
Gene CPT2, hepatocytes
  RNA-seq results: CPT2 expression: 0.10
Gene CROT, hepatocytes
  RNA-seq results: CROT expression: −0.04
Gene CSPP1, hepatocytes
  RNA-seq results: CSPP1 expression: −0.07
Gene CTC1, hepatocytes
  RNA-seq results: CTC1 expression: −0.08
Gene CTDSP2, hepatocytes
  RNA-seq results: CTDSP2 expression: 0.10
Gene CTH, hepatocytes
  RNA-seq results: CTH expression: 0.23
Gene CTNS, hepatocytes
  RNA-seq results: CTNS expression: 0.08
Gene CTSF, hepatocytes
  RNA-seq results: CTSF expression: 0.10
Gene CTSK, hepatocytes
  RNA-seq results: CTSK expression: −0.15
Gene CYB5A, hepatocytes
  RNA-seq results: CYB5A expression: 0.73
Gene CYB5R3, hepatocytes
  RNA-seq results: CYB5R3 expression: 0.04
Gene CYP27A1, hepatocytes
  RNA-seq results: CYP27A1 expression: 0.04
Gene DAO, hepatocytes
  RNA-seq results: DAO expression: −0.04
Gene DBT, hepatocytes
  RNA-seq results: DBT expression: 0.04
Gene DCDC2, hepatocytes
  RNA-seq results: DCDC2 expression: 0.01
Gene DCXR, hepatocytes
  RNA-seq results: DCXR expression: −0.01
Gene FABP1, hepatocytes
  RNA-seq results: FABP1 expression: −0.25
Gene FADD, hepatocytes
  RNA-seq results: FADD expression: −0.08
Gene FAM111A, hepatocytes
  RNA-seq results: FAM111A expression: 0.07
Gene FAM111B, hepatocytes
  RNA-seq results: FAM111B expression: 0.03
Gene FAN1, hepatocytes
  RNA-seq results: FAN1 expression: 0.05
Gene FARS2, hepatocytes
  RNA-seq results: FARS2 expression: −0.14
Gene FASLG, hepatocytes
  RNA-seq results: FASLG expression: −0.21
Gene FGA, hepatocytes
  RNA-seq results: FGA expression: 0.16
Gene FGD1, hepatocytes
  RNA-seq results: FGD1 expression: −0.07
Gene FGFR2, hepatocytes
  RNA-seq results: FGFR2 expression: 0.07
Gene FIG4, hepatocytes
  RNA-seq results: FIG4 expression: −0.12
Gene FIS1, hepatocytes
  RNA-seq results: FIS1 expression: −0.06
Gene FTCD, hepatocytes
  RNA-seq results: FTCD expression: 0.31
Gene FTH1, hepatocytes
  RNA-seq results: FTH1 expression: 0.06
Gene FUCA1, hepatocytes
  RNA-seq results: FUCA1 expression: −0.11
Gene FXN, hepatocytes
  RNA-seq results: FXN expression: 0.23
Gene G6PC3, hepatocytes
  RNA-seq results: G6PC3 expression: 0.02
Gene G6PC, hepatocytes
  RNA-seq results: G6PC expression: 0.12
Gene G6PD, hepatocytes
  RNA-seq results: G6PD expression: 0.13
Gene GALK1, hepatocytes
  RNA-seq results: GALK1 expression: −0.03
Gene GALK2, hepatocytes
  RNA-seq results: GALK2 expression: 0.00
Gene GALT, hepatocytes
  RNA-seq results: GALT expression: 0.01
Gene GATA6, hepatocytes
  RNA-seq results: GATA6 expression: −0.07
Gene GATM, hepatocytes
  RNA-seq results: GATM expression: −0.15
Gene GBA, hepatocytes
  RNA-seq results: GBA expression: 0.02
Gene GBE1, hepatocytes
  RNA-seq results: GBE1 expression: −0.15
Gene GCH1, hepatocytes
  RNA-seq results: GCH1 expression: −0.06
Gene GCKR, hepatocytes
  RNA-seq results: GCKR expression: 0.23
Gene GCLC, hepatocytes
  RNA-seq results: GCLC expression: −0.04
Gene GOSH, hepatocytes
  RNA-seq results: GOSH expression: 0.46
Gene RRM2B, hepatocytes
  RNA-seq results: RRM2B: −0.28
Gene RSAD1, hepatocytes
  RNA-seq results: RSAD1: −0.02
Gene SAMHD1, hepatocytes
  RNA-seq results: SAMHD1: −0.24
Gene SC5D, hepatocytes
  RNA-seq results: SC5D: −0.29
Gene SCARB1, hepatocytes
  RNA-seq results: SCARB1: −0.03
Gene SCN9A, hepatocytes
  RNA-seq results: SCN9A: 0.10
Gene SDCCAG8, hepatocytes
  RNA-seq results: SDCCAG8: −0.06
Gene SEPN1, hepatocytes
  RNA-seq results: SEPN1: −0.11
Gene SERAC1, hepatocytes
  RNA-seq results: SERAC1: −0.22
Gene SERPINA1, hepatocytes
  RNA-seq results: SERPINA1: −0.17
Gene SERPING1, hepatocytes
  RNA-seq results: SERPING1: −0.16
Gene SERPINI1, hepatocytes
  RNA-seq results: SERPINI1: −0.41
Gene SETBP1, hepatocytes
  RNA-seq results: SETBP1: 0.06
Gene SFXN4, hepatocytes
  RNA-seq results: SFXN4: −0.19
Gene SLC10A1, hepatocytes
  RNA-seq results: SLC10A1: −0.31
Gene SLC10A3, hepatocytes
  RNA-seq results: SLC10A3: 0.33
Gene SLC10A5, hepatocytes
  RNA-seq results: SLC10A5: 0.19
Gene SLC10A7, hepatocytes
  RNA-seq results: SLC10A7: −0.38
Gene SLC11A2, hepatocytes
  RNA-seq results: SLC11A2: −0.02
Gene SLC19A1, hepatocytes
  RNA-seq results: SLC19A1: 0.05
Gene SLC19A2, hepatocytes
  RNA-seq results: SLC19A2: 0.00
Gene SLC19A3, hepatocytes
  RNA-seq results: SLC19A3: −0.03
Gene SLC22A1, hepatocytes
  RNA-seq results: SLC22A1: −0.32
Gene SLC22A5, hepatocytes
  RNA-seq results: SLC22A5: 0.05
Gene SLC25A1, hepatocytes
  RNA-seq results: SLC25A1: 0.08
Gene SLC25A10, hepatocytes
  RNA-seq results: SLC25A10: −0.16
Gene SLC25A12, hepatocytes
  RNA-seq results: SLC25A12: 0.23
Gene SLC25A13, hepatocytes
  RNA-seq results: SLC25A13: −0.13
Gene SLC25A15, hepatocytes
  RNA-seq results: SLC25A15: 0.02
Gene SLC25A19, hepatocytes
  RNA-seq results: SLC25A19: −0.15
Gene SLC25A20, hepatocytes
  RNA-seq results: SLC25A20: −0.16
Gene SLC25A29, hepatocytes
  RNA-seq results: SLC25A29: 0.09
Gene SLC25A32, hepatocytes
  RNA-seq results: SLC25A32: −0.05

## Fc1ccc(C(OCCN2CCN(CCCc3ccccc3)CC2)c2ccc(F)cc2)cc1 [Vanoxerine]
RNA-seq, hepatocytes
  Number (#) of genes having significantly changed expression: 17

## CSCC[C@H](N)C(=O)N[C@@]1(C(=O)O)CS(=O)(=O)[C@H]2[C@H](C(=O)O)[C@H]21 [Pomaglumetad methionil]
RNA-seq of Table 36, FPKM≥0.5, log 2(fold-change)≥1, q-value≤0.05
  significant changes in gene expression: not observed to cause any significant changes in gene expression
RNA-seq, hepatocytes
  significant modulation of expression of any of the genes analyzed: not observed to significantly modulate expression

## Cc1ccc2c(c1)c1c(n2CCc2ccc(C)nc2)CCN(C)C1 [Latrepirdine (dihydrochloride) (57), Latrepirdine]
RNA-seq, hepatocytes
  Number (#) of genes having significantly changed expression: 12
  significant modulation of expression of any of the genes analyzed: not observed to significantly modulate expression
  effect on disease gene expression: no effect on any disease gene
